PubChem BioAssay AID2060892 (Molecular Pharmacology Branch, DTP, NCI, 2025)

Test system: HOP-62 complex spheroids with HUVEC/MSC, viability
Assay: Anticancer human tumor HOP-62 cell line growth inhibition [RAS];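 further: spheroids exposed to agents for seven days before readout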;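 on viability, T/C: 100% = DMSO vehicle control viability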
Details: for viability, T/C: stronger effect = lower value
Description: RAS pathway inhibitors in Combinations in Complex Spheroids
A high-throughput screen of multi-cell type tumor spheroids was designed to identify active combinations of RAS pathway inhibitors and targeted small molecules. Complex spheroids include a stromal component modeled by human endothelial cells (HUVEC) and fibroblasts modeled by human mesenchymal stem cells (MSCs). The concentration ranges selected for each drug and investigational agent were based upon clinically achievable concentrations if the clinical Cmax of the agent was known.
Compounds. The drugs and investigational agents: abemaciclib (NSC768073), cobimetinib (NSC768068), divarasib (GDC6063, NSC841802), docetaxel (NSC628503), GDC-1971 (RLY-1971, NSC841576), gemcitabine (NSC613327), inavolisib (NSC800729), ipatasertib (NSC767898), KB-0742 (NSC834161), MRTX-1133 (NSC836407), osimertinib (NSC779217), RMC-4630 (NSC839698), RMC-6236 (NSC851965), RMC-6291 (NSC852671), Ro-3306 (NSC812927), sapanisertib (NSC764658), SN-38 (NSC673596), staurosporine (NSC755774), SY5609 (NSC837396), and tovorafenib (DAY101, NSC766906), were obtained from the National Cancer Institute (NCI) Developmental Therapeutics Program Chemical Repository. The FDA-approved anticancer drug set is available from the NCI Developmental Therapeutics Program. […] The stock solutions were prepared in dimethyl sulfoxide (DMSO, Sigma-Aldrich, St. Louis, MO, cat. D2650) at 800-fold the tested concentration and stored at -70 degrees C prior to their use. All drugs and investigational agents were tested over a range starting from a high concentration at or near the clinical Cmax and decreasing in half-log increments. If the clinical Cmax for an agent had not been determined, the highest concentration tested was 10 microM.
Cell Culture. All cells were maintained in an incubator at 37 degrees C and 5% CO2 with 95% humidity. The PDC lines were cultured according to standard operating procedures established by the NCI PDMR. All PDCs were thawed and cultured in Matrigel-coated flasks prepared with a working solution of 1X Ham's F-12 nutrient mix, without supplementation (Invitrogen, Waltham, MA, cat. 11765054), 100 U/mL penicillin-streptomycin (Invitrogen, cat. 15140122), and 2.5% Matrigel (Corning Inc., Corning, NY, cat. 354248) for the first three passages. The 362531-283-R-J2-PDC and 782815-120-R-J1-PDC lines were cultured in 6C/Colon 1B media, which includes advanced DMEM/F-12 (Thermo Fisher Scientific, cat. 12634028), 10 mM HEPES (Thermo Fisher Scientific, cat. 15630080), 1X GlutaMAX supplement (Thermo Fisher Scientific, cat. 35050061), 0.1 mg/mL primocin (InvivoGen, San Diego, CA, cat. ant-pm-2), 10% defined fetal bovine serum, heat inactivated (HyClone Laboratories Inc., Logan, UT, cat. SH30070.03HI), 50% L-WRN conditioned media (ATCC, cat. CRL-3276), 1.25 mM N-Acetyl-L-cysteine (Sigma-Aldrich, cat. A9165), 10 mM nicotinamide (Sigma-Aldrich, cat. N0636), 1X B-27 supplement (Thermo Fisher Scientific, cat. 17504044), 1X N-2 supplement (Thermo Fisher Scientific, cat. 17502048), 50 ng/mL human EGF (Thermo Fisher Scientific, cat. PHG0311), and 10 microM Y-27632 dihydrochloride (Tocris Bioscience, cat. 1254). The K12877-001-R-J1-PDC line was cultured in 6I media, which includes all 6C/Colon 1B media plus 10 ng/mL human FGF-10 (PeproTech, cat. 100-26), 1 ng/mL human FGF-2 (PeproTech, cat. 100-18B), 1 µM prostaglandin E2 (Tocris Bioscience, cat. 2296), […] hydrocortisone (Sigma-Aldrich, cat. H4001), and […] bovine insulin (Sigma-Aldrich, cat. I6634). The K86415-001-R-J1-PDC line was cultured in 6D media, which includes all 6C/Colon 1B media components minus the L-WRN conditioned media. The 485176-168-R4-J1-PDC was cultured in PANC media, which includes all 6C/Colon 1B media plus 100 ng/mL human FGF-10 (PeproTech, cat. 100-26), 500 nM SB-431542 (Selleckchem, cat. S1067), and 10 nM gastrin (Tocris Bioscience, cat. 3006). […]

With `Cc1nc(N2CCC3(CC2)COC(C)C3N)c(CO)nc1Sc1ccnc(N)c1Cl` (centres undefined) + C=CC(=O)N1CCN(c2nc(OCC3CCCN3C)nc3c(F)c(-c4nc(N)cc(C)c4C(F)(F)F)c(Cl)cc23)C(C)C1 the IC50 (curve of first compound, second compound 0.00316 µM) was 138 nM, the IC50 (curve of first compound, second compound 0.01 µM) was 72 nM and the IC50 (curve of first compound, second compound 0.0316 µM) was 43.9 nM. For the same compound, the IC50 (curve of first compound, second compound 0.1 µM) was 52 nM, the IC50 (curve of first compound, second compound 0.316 µM) was 56.7 nM and the IC50 (curve of first compound, second compound 1 µM) was less than 31.6 nM. For the same compound, the viability, T/C (second compound 0.00316 µM, first compound 0.0316 µM) was 68.6%, the viability, T/C (second compound 0.00316 µM, first compound 0.1 µM) was 52.6% and the viability, T/C (second compound 0.00316 µM, first compound 0.316 µM) was 40.3%. It also gave a viability, T/C (second compound 0.00316 µM, first compound 1 µM) of 28.7%, a viability, T/C (second compound 0.00316 µM, first compound 3.16 µM) of 14.1% and a viability, T/C (second compound 0.00316 µM, first compound 10 µM) of 13.8%. For the same compound, the viability, T/C (second compound 0.01 µM, first compound 0.0316 µM) was 58.6%, the viability, T/C (second compound 0.01 µM, first compound 0.1 µM) was 46.1% and the viability, T/C (second compound 0.01 µM, first compound 0.316 µM) was 32.8%. The viability, T/C (second compound 0.01 µM, first compound 1 µM) was 21.3%, the viability, T/C (second compound 0.01 µM, first compound 3.16 µM) was 10.6% and the viability, T/C (second compound 0.01 µM, first compound 10 µM) was 8.87%. The viability, T/C (second compound 0.0316 µM, first compound 0.0316 µM) was 52%, the viability, T/C (second compound 0.0316 µM, first compound 0.1 µM) was 44.8% and the viability, T/C (second compound 0.0316 µM, first compound 0.316 µM) was 30.5%. For the same compound, the viability, T/C (second compound 0.0316 µM, first compound 1 µM) was 17.4%, the viability, T/C (second compound 0.0316 µM, first compound 3.16 µM) was 13.7% and the viability, T/C (second compound 0.0316 µM, first compound 10 µM) was 9.06%. It also gave a viability, T/C (second compound 0.1 µM, first compound 0.0316 µM) of 56.5%, a viability, T/C (second compound 0.1 µM, first compound 0.1 µM) of 41.5% and a viability, T/C (second compound 0.1 µM, first compound 0.316 µM) of 29.1%. For the same compound, the viability, T/C (second compound 0.1 µM, first compound 1 µM) was 19.5%, the viability, T/C (second compound 0.1 µM, first compound 3.16 µM) was 10.4% and the viability, T/C (second compound 0.1 µM, first compound 10 µM) was 9.33%. For the same compound, the viability, T/C (second compound 0.316 µM, first compound 0.0316 µM) was 54.8%, the viability, T/C (second compound 0.316 µM, first compound 0.1 µM) was 44.8% and the viability, T/C (second compound 0.316 µM, first compound 0.316 µM) was 31.1%. The viability, T/C (second compound 0.316 µM, first compound 1 µM) was 15.5%, the viability, T/C (second compound 0.316 µM, first compound 3.16 µM) was 12.1% and the viability, T/C (second compound 0.316 µM, first compound 10 µM) was 10.7%. For the same compound, the viability, T/C (second compound 1 µM, first compound 0.0316 µM) was 49.6%, the viability, T/C (second compound 1 µM, first compound 0.1 µM) was 37.8% and the viability, T/C (second compound 1 µM, first compound 0.316 µM) was 26.1%. The viability, T/C (second compound 1 µM, first compound 1 µM) was 15.1%, the viability, T/C (second compound 1 µM, first compound 3.16 µM) was 11.7% and the viability, T/C (second compound 1 µM, first compound 10 µM) was 8.55%.

With `CCn1c(-c2cccnc2C(C)OC)c2c3cc(ccc31)N1CCOC(CC(NC(=O)C(C(C)C)N(C)C(=O)C3(F)CCN(C(=O)C#CC(C)(C)N(C)C)CC3)C(=O)N3CCCC(N3)C(=O)OCC(C)(C)C2)C1` (centres undefined) the viability, T/C (compound 0.000949 µM) was 107% [middle of 8 runs], the viability, T/C (compound 0.003 µM) was 99.7% [middle of 8 runs] and the viability, T/C (compound 0.00949 µM) was 90.7% [middle of 8 runs]. The viability, T/C (compound 0.03 µM) was 90.4% [middle of 8 runs], the viability, T/C (compound 0.0949 µM) was 85.9% [middle of 8 runs] and the viability, T/C (compound 0.3 µM) was 83.2% [middle of 8 runs]. The IC50 (compound alone, run of 07/09/2024) was greater than 300 nM.
